Values joined by “and” are separate entries in the source; they are usually repeats but may differ in a detail not shown here. Equal values may be shown once. Read-outs that look alike come from different tables or passages of the source.
Tested on: T. brucei lysate proteins
Assay type: binding, Trypanosoma brucei

For `NCCCNc1ccc(C(=O)NC(CCC(=O)O)C(=O)O)cc1` (stereo not shown) [compound 7], the “fold change vs vehicle control” value was 0.96 and 1.1 and 0.99, the fold change (protein CZB00000046.1 HA-UBIQUITIN, vehicle control = 1) was 0.74 and the fold change (protein RHS6A, vehicle control = 1) was 0.95. For the same molecule, the “fold change vs vehicle control” value (protein TB09.160.3270 ATP-DEPENDENT DEAD BOX HELICASE, PUTATIVE, vehicle control = 1) was 0.89, the fold change (protein TB09.160.3710 PRO[…] NUCLEAR ANTIGEN (PCNA), PUTATIVE, vehicle control = 1) was 0.81 and the “fold change vs vehicle control” value (protein TB09.160.4200 60S ACIDIC RIBOSOMAL PROTEIN, PUTATIVE, vehicle control = 1) was 0.64. The “fold change vs vehicle control” value (protein TB09.160.4250 TR[…], vehicle control = 1) was 0.94, the “fold change vs vehicle control” value (protein TB09.211.2630 60S RIBOSOMAL PROTEIN L23, PUTATIVE, vehicle control = 1) was 0.98 and the fold change (protein TB09.211.4460 ADP-RI[…], PUTATIVE, vehicle control = 1) was 0.93. For the same molecule, the fold change (protein TB09.211.4513 KIN[…] PROTEIN KMP-11, vehicle control = 1) was 0.88, the fold change (protein TB09.211.4760 METACASPASE 5, PUTATIVE, vehicle control = 1) was 1.1 and the “fold change vs vehicle control” value (protein TB09.244.2780 HY[…], CONSERVED, vehicle control = 1) was 1.54. The fold change (protein TB11.01.0450 PROTEIN PHOSPHATASE 1, PUTATIVE, vehicle control = 1) was 1, the “fold change vs vehicle control” value (protein TB11.01.2560 40S RIBOSOMAL PROTEIN SA, PUTATIVE, vehicle control = 1) was 0.82 and the “fold change vs vehicle control” value (protein TB11.01.3180 GUANINE NUCLEOTIDE-BINDING PROTEIN BETA SUBUNIT-LIKE PROTEIN, vehicle control = 1) was 0.93. For the same molecule, the “fold change vs vehicle control” value (protein TB11.01.4370 HY[…], CONSERVED, vehicle control = 1) was 0.8, the fold change (protein TB11.01.5350 PROFILIN, vehicle control = 1) was 0.98 and the fold change (protein TB11.01.5860 T-COMPLEX PROTEIN 1, EPSILON SUBUNIT, PUTATIVE, vehicle control = 1) was 0.91. The fold change (protein TB11.01.8590 RAB-LIKE 5, SMALL G PROTEIN, vehicle control = 1) was 0.85, the fold change (protein TB11.01.8740 PROTEIN PHOSPHATASE 4, PUTATIVE, vehicle control = 1) was 0.77 and the “fold change vs vehicle control” value (protein TB11.02.2040 HY[…], CONSERVED (ALBA-Domain Protein), vehicle control = 1) was 0.84. For the same molecule, the “fold change vs vehicle control” value (protein TB11.02.2420 HY[…], CONSERVED, vehicle control = 1) was 0.99, the “fold change vs vehicle control” value (protein TB11.02.2640 DYNEIN IN[…] IC78, PUTATIVE, vehicle control = 1) was 1.17 and the fold change (protein TB11.02.2960 MIT[…] PROTEIN, PUTATIVE, vehicle control = 1) was 0.88. For the same molecule, the “fold change vs vehicle control” value (protein TB11.02.4170 40S RIBOSOMAL PROTEIN S5, PUTATIVE, vehicle control = 1) was 1.18, the fold change (protein TB11.02.4700 14-3-3 PROTEIN, vehicle control = 1) was 1 and the “fold change vs vehicle control” value (protein TB11.03.0250 C[…], vehicle control = 1) was 0.88. For the same molecule, the “fold change vs vehicle control” value (protein TB11.03.0530 HY[…], CONSERVED (hy[…] SCD6.10), vehicle control = 1) was 1.76, the “fold change vs vehicle control” value (protein TB427TMP.01.0480 HY[…], CONSERVED, vehicle control = 1) was 1 and the fold change (protein TB427TMP.01.1470 60S RIBOSOMAL PROTEIN L10A, PUTATIVE, vehicle control = 1) was 0.84. For the same molecule, the “fold change vs vehicle control” value (protein TB427TMP.01.4280 HY[…], CONSERVED, vehicle control = 1) was 1.2, the “fold change vs vehicle control” value (protein TB427TMP.01.5680 HY[…], CONSERVED, vehicle control = 1) was 0.98 and the “fold change vs vehicle control” value (protein TB427TMP.01.5690 DRBD4, vehicle control = 1) was 0.89. For the same molecule, the fold change (protein TB427TMP.01.5960 MIT[…] PROTEIN, PUTATIVE, vehicle control = 1) was 0.93, the “fold change vs vehicle control” value (protein TB427TMP.01.6890 SMALL GTPASE, PUTATIVE, vehicle control = 1) was 1.8 and the fold change (protein TB427TMP.01.7490 HY[…], CONSERVED, vehicle control = 1) was 0.96. The “fold change vs vehicle control” value (protein TB427TMP.01.7530 HY[…], CONSERVED, vehicle control = 1) was 1, the fold change (protein TB427TMP.01.8390 HY[…], CONSERVED, vehicle control = 1) was 0.96 and the fold change (protein TB427TMP.01.8570 DYNEIN LIGHT IN[…] D1BLIC, PUTATIVE, vehicle control = 1) was 0.95. It also gave a fold change (protein TB427TMP.02.0030 DYNEIN HEAVY CHAIN, PUTATIVE, vehicle control = 1) of 0.88, a fold change (protein TB427TMP.02.0460 NUCLEOPORIN, vehicle control = 1) of 0.98 and a fold change (protein TB427TMP.02.0750 T-COMPLEX PROTEIN 1, ZETA SUBUNIT, PUTATIVE, vehicle control = 1) of 1. For the same molecule, the fold change (protein TB427TMP.02.0760 DYNEIN HEAVY CHAIN, PUTATIVE, vehicle control = 1) was 0.91, the fold change (protein TB427TMP.02.1070 AMINOPEPTIDASE, PUTATIVE, vehicle control = 1) was 0.72 and the “fold change vs vehicle control” value (protein TB427TMP.02.1085 40S RIBOSOMAL PROTEIN S4, PUTATIVE, vehicle control = 1) was 0.78. The fold change (protein TB427TMP.02.1106 NUCLEOBASE/NUCLEOSIDE TRANSPORTER 8 1, vehicle control = 1) was 0.95, the “fold change vs vehicle control” value (protein TB427TMP.02.2070 LONG-CHAIN-FATTY-ACID-COA LIGASE, PUTATIVE, vehicle control = 1) was 0.95 and the “fold change vs vehicle control” value (protein TB427TMP.02.2890 HY[…], CONSERVED, vehicle control = 1) was 1.22. The “fold change vs vehicle control” value (protein TB427TMP.02.4300 HY[…], CONSERVED, vehicle control = 1) was 1.4, the fold change (protein TB427TMP.02.4550 HY[…], CONSERVED, vehicle control = 1) was 0.93 and the “fold change vs vehicle control” value (protein TB427TMP.02.5450 GLUCOSE-REGULATED PROTEIN 78, PUTATIVE, vehicle control = 1) was 0.97. It also gave a fold change (protein TB427TMP.02.5660 HY[…], CONSERVED, vehicle control = 1) of 0.82, a fold change (protein TB427TMP.03.0150 HY[…], CONSERVED, vehicle control = 1) of 0.91 and a fold change (protein TB427TMP.160.2370 HY[…], CONSERVED, vehicle control = 1) of 0.91. For the same molecule, the “fold change vs vehicle control” value (protein TB427TMP.160.4620 INOSITOL-1(OR 4)-MONOPHOSPHATASE, PUTATIVE, vehicle control = 1) was 0.99, the “fold change vs vehicle control” value (protein TB427TMP.160.4630 HY[…], CONSERVED, vehicle control = 1) was 0.83 and the fold change (protein TB427TMP.160.4770 PROTEIN KINASE, PUTATIVE, vehicle control = 1) was 0.89. For the same molecule, the fold change (protein TB427TMP.160.5670 HY[…], CONSERVED, vehicle control = 1) was 1.47, the fold change (protein TB427TMP.211.0740 P21 ANTIGEN PROTEIN, PUTATIVE, vehicle control = 1) was 0.79 and the fold change (protein TB427TMP.211.0930 POLYADENYLATE-BINDING PROTEIN 1 (POLY(A)-BINDING PROTEIN 1) (PABP 1), vehicle control = 1) was 0.89. The fold change (protein TB427TMP.211.2460 HY[…], CONSERVED, vehicle control = 1) was 0.96, the “fold change vs vehicle control” value (protein TB427TMP.211.2570 T-COMPLEX PROTEIN 1, ETA SUBUNIT, PUTATIVE, vehicle control = 1) was 0.8 and the “fold change vs vehicle control” value (protein TB427TMP.211.3140 HY[…], CONSERVED, vehicle control = 1) was 2.05. The “fold change vs vehicle control” value (protein TB427TMP.211.3510 ATP-DEPENDENT DEAD/H RNA HELICASE, PUTATIVE, vehicle control = 1) was 0.97, the “fold change vs vehicle control” value (protein TB427TMP.211.4170 HY[…], CONSERVED, vehicle control = 1) was 1.18 and the “fold change vs vehicle control” value (protein TB427TMP.22.0003 PHOSPH[…], PUTATIVE, vehicle control = 1) was 1.32. For the same molecule, the fold change (protein TB427TMP.244.2840 HY[…], CONSERVED, vehicle control = 1) was 0.93, the fold change (protein TB427TMP.47.0011 HY[…], CONSERVED, vehicle control = 1) was 0.87 and the “fold change vs vehicle control” value (protein TB427TMP.55.0006 INTR[…] PROTEIN IFT88, vehicle control = 1) was 0.91. For the same molecule, the “fold change vs vehicle control” value (protein TB427.01.120 RETRO[…] SPOT (RHS) PROTEIN, PUTATIVE, vehicle control = 1) was 0.9, the fold change (protein TB427.01.2570 COATOMER BETA SUBUNIT, vehicle control = 1) was 0.94 and the fold change (protein TB427.01.5030 LEUCINE-RICH REPEAT PROTEIN (LRRP), PUTATIVE, vehicle control = 1) was 0.98. The “fold change vs vehicle control” value (protein TB427.02.2970 MIT[…] PROTEIN, PUTATIVE, vehicle control = 1) was 1.23, the “fold change vs vehicle control” value (protein TB427.02.3880 HET[…] RIBONUC[…]/F, PUTATIVE, vehicle control = 1) was 1.22 and the “fold change vs vehicle control” value (protein TB427.03.1210 PROTEIN TRANSPORT PROTEIN SEC24, vehicle control = 1) was 1.18. For the same molecule, the “fold change vs vehicle control” value (protein TB427.03.3160 POLY(A) POLYMERASE, vehicle control = 1) was 1.17, the “fold change vs vehicle control” value (protein TB427.03.3950 HY[…], CONSERVED, vehicle control = 1) was 0.95 and the “fold change vs vehicle control” value (protein TB427.03.4040 HY[…], CONSERVED (Ankyrinrepeat), vehicle control = 1) was 1.73. The “fold change vs vehicle control” value (protein TB427.04.1080 V-TYPE ATPASE, A SUBUNIT, PUTATIVE, vehicle control = 1) was 1.34, the fold change (protein TB427.04.1090 ENDOSOMAL INTEGRAL MEMBRANE PROTEIN, PUTATIVE, vehicle control = 1) was 1.3 and the fold change (protein TB427.04.1300 HY[…], CONSERVED, vehicle control = 1) was 0.92. The “fold change vs vehicle control” value (protein TB427.04.1660 MIT[…] PROTEIN, PUTATIVE, vehicle control = 1) was 0.89, the fold change (protein TB427.04.310 HY[…], CONSERVED, vehicle control = 1) was 0.56 and the fold change (protein TB427.04.3890 ATP-DEPENDENT RNA HELICASE, PUTATIVE, vehicle control = 1) was 0.88. The fold change (protein TB427.04.420 PHOSPHATIDYLINOSITOL 3-KINASE (TOR2), vehicle control = 1) was 0.71, the fold change (protein TB427.04.450 COATOMER ALPHA SUBUNIT, PUTATIVE, vehicle control = 1) was 0.89 and the fold change (protein TB427.04.5010 CALRETICULIN, PUTATIVE, vehicle control = 1) was 0.83. For the same molecule, the fold change (protein TB427.04.5200 NUCLEOPORIN (NUP54/57), PUTATIVE, vehicle control = 1) was 0.99.

Source: article PMC6199744, “Development of Chemical Proteomics for the Folateome and Analysis of the Kinetoplastid Folateome” (ACS Infectious Diseases, 2018)
